For test [1], the target named is T1, ALDH1B1 (Homo sapiens, UniProt P30837).
T1 construct: purified ALDH1B1 protein, wild type and alanine mutants
T1 sequence (P30837 18-517): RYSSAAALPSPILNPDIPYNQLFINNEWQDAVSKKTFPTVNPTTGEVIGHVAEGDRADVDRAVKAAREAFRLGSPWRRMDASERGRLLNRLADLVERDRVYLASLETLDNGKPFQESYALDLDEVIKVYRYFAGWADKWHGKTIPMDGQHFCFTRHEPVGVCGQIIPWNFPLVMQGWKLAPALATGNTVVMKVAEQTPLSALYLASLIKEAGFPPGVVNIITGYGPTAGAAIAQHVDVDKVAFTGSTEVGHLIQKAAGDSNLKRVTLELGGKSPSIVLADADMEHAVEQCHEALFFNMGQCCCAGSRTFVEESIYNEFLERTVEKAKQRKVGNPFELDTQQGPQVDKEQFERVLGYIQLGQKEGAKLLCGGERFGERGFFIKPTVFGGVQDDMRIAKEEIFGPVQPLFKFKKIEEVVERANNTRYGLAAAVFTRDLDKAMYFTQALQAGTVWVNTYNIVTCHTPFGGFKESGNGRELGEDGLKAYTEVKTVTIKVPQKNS
The test can be described thus: surface plasmon resonance. The test is classed as binding.

Test [2] concerns the target T1, ALDH1B1. The test can be described thus: in vitro enzyme activity assay. The test is classed as biochemical.
Test [3] deals with T2, ENPP1 (Homo sapiens, UniProt P22413).
T2 construct: purified ENPP1 protein for PTS, enzyme assay and SPR
T2 sequence (P22413 1-925): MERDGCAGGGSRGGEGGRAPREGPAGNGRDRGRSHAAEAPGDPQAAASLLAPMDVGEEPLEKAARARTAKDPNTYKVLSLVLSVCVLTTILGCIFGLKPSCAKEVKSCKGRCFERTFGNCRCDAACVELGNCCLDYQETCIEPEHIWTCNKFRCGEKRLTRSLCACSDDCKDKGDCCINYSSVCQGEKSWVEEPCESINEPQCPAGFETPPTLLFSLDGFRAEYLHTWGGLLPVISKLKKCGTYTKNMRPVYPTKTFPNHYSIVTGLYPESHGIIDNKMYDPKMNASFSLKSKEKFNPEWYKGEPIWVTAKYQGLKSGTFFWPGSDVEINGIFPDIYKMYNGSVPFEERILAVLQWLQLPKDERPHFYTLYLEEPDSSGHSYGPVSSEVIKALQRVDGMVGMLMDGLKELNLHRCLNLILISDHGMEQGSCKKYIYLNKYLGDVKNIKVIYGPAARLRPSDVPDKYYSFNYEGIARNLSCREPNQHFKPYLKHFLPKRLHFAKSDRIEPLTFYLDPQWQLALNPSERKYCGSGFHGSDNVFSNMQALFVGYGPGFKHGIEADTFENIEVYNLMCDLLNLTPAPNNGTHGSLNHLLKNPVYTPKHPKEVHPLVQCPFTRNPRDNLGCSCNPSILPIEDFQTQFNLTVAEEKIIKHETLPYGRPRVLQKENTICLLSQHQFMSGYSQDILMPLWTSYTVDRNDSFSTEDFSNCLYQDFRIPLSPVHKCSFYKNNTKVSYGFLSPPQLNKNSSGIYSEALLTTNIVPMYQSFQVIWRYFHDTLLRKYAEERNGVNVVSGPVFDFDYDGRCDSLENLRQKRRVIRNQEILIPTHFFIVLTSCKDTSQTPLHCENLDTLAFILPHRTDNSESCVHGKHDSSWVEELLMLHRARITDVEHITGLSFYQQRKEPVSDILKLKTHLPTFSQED
As to the kind of experiment: in vitro enzyme activity assay. The test is classed as biochemical.

Test [4] has as its target T2, ENPP1. As to the kind of experiment: surface plasmon resonance. The test is classed as binding.

The structures appear in SMILES notation.

For `Fc1cc(F)c2c(c1)[C@H]1C=CC[C@H]1[C@@H](c1cccnc1)N2` [B2], the Kd in test [1] came out at 1210 nM. Further, half-maximal inhibition in test [2] (IC50) required 5570 nM.
The compound `Fc1cc(F)c2c(c1)[C@@H]1C=CC[C@@H]1[C@H](c1cccnc1)N2` [B1] returned a Kd in test [1] of 15.2 nM. Also, in test [2], the IC50 came to 20 nM.
For `COc1cccc(F)c1-c1nc(C(=O)Nc2ccccc2N2CCC(NS(N)(=O)=O)CC2)cn2ccnc12` [A2], in test [3], the IC50 was found to be 2280 nM. The affinity in test [4], expressed as Kd, was 1030 nM.

Usually Kd stands for a measure of binding affinity in units of concentration. The low end stands for a tighter complex, the high end for a looser complex. As a reminder, the IC50 is the point on the concentration scale where inhibition reaches its midpoint. High values mean a need for much substance, low ones inhibition by little substance.
